Patent US11357817B2, “Immunoproteasome inhibitor” (The Regents of the University of California, priority 2017, dated 2022)

Assays:
[1] = tested on: P. falciparum Stage V gametocytes; assay: Compound sensitivity testing of Stage V gametocytes; type: cell-based; details: Plasmodium falciparum, read-out: IC50 against stage V gametocytes
Experimental: Gametocytes were induced in NF54 or derived clones as previously described (33). Asexual blood stage parasites were synchronized at ring stage using 5% sorbitol for three consecutive life cycles. Once the culture reached a parasitemia of 8-10% ring stages, half of the media was exchanged to stress the parasites. Twenty-four hours later, the culture media was exchanged with fresh media and the culture was shaken overnight. The following day, the culture was treated with 50 mM N-acetyl-glucosamine (NAG) (in complete media), and new media containing NAG was added every day for 10 days to clear remaining asexual blood stage parasites and enrich for gametocytes. After 10 days, complete media without NAG was provided each day for the last two days of gametocyte development in order to obtain ˜1% gametocytemia with >80% Stage V specificity and no visible asexual blood stage parasites (assessed via Giemsa-stained thin smears). Drug Sensitivity of Stage V gametocytes were then determined using a published protocol using mitotracker red (34). Each compound was tested in technical triplicate in a ten-point concentration curve prepared by three-fold dilution starting at 12.5 μM. At least three independent experiments were carried out for EC50 determination and puromycin was used as a positive control. […]

[2] = tested on: 20S Plasmodium proteasome (Pf20S) β5 subunit; assay: Proteasome activity assay, Pf20S β5 (suc-LLVY-AMC); type: biochemical, Plasmodium falciparum
Experimental: Asynchronous P. falciparum cultures were grown up to 4-5% parasitemia, in 300 mL of RPMI media at 5.0% hematocrit. Cultures were then transferred to 50 mL conical tubes, pelleted via centrifugation at 800 g for 5 min, and washed once with 1×PBS and pelleted again as above. The PBS was removed and lysis buffer (0.15% saponin in PBS) was added on ice in 10 pellet volumes. Upon lysis of red blood cells, indicated by a clear red supernatant, the lysed cultures were centrifuged at 3200×g for 12 minutes at 4° C. The supernatant was removed by aspiration and the cells were washed twice using chilled PBS in microcentrifuge tubes. The cell pellets were then incubated on ice for 1 hour with occasional vortexing in a buffer consisting of 20 mM Tris-HCl pH 7.5, 5 mM MgCl2, 1 mM DTT, 100 μM E-64 and 1 mM AEBSF. This sample was then subjected to 3 rounds of freezing (−80° C.) and thawing (37° C.) and centrifugation at 6000×g for 10 min. The supernatant containing soluble P. falciparum protein was quantified by the BCA method (Pierce).
P. falciparum proteasome was enriched by two-chromatographic steps reported previously (10). In brief, 10 mg of P. falciparum protein was concentrated to 1 mL using a 100 kDa centrifugal filter unit (Amicon) and loaded onto a 5 mL anion exchange HiTrap DEAE FF column (GE Healthcare). […] The AMC fluorophore release was monitored at Ex 340/Em 465 nm at 24° C. using a Synergy HTX multi-mode reader (Biotek). […] Proteins were eluted using 20 mM Tris-HCl pH 7.5, 100 mM NaCl, 10% glycerol and 1 mL fractions were collected, evaluated for protease activity and pooled.
To estimate the concentration of Pf20S in the final pooled sample, protein was denatured and loaded into a 4-12% Bis-Tris Plus gel (Thermo Fisher Scientific) beside 60 to 100 ng of human constitutive proteasome (Boston Biochem). […] For inhibition assays, inhibitor and substrate were added simultaneously to the enzyme and the rate of AMC release was determined from 60 to 120 minutes and compared to a DMSO control.

P. falciparum Dd2 = P. falciparum Dd2 asexual blood stage SYBR Green I compound sensitivity assay; type: cell-based, Plasmodium falciparum; details: Plasmodium falciparum, DD2, 72 h, asexual blood stage, 72 hour SYBR green assay
Experimental: P. falciparum Dd2 strain parasites were cultured under standard conditions (31), using RPMI media supplemented with 0.05 mg/ml gentamycin, 0.014 mg/mL hypoxanthine (prepared fresh), 38.4 mM HEPES, 0.2% Sodium Bicarbonate, 3.4 mM Sodium Hydroxide, 0.05% O+ Human Serum (Denatured at […] for 40 min and From Interstate Blood Bank, Memphis, Tenn.) and 0.0025% Albumax). Human O+ whole blood was obtained from TSRI blood bank (La Jolla, Calif.). Leukocyte-free erythrocytes are stored at 50% hematocrit in RPMI-1640 screening media (as above, but without O+ human serum and with 2× albumax concentration) at 4° C. for one to three weeks before experimental use. Cultures were monitored every one to two days via Giemsa-stained thin smears.
Compound susceptibility was measured using the malaria SYBR Green I-based fluorescence assay (32). Asynchronous P. falciparum parasites (Dd2 strain) were cultured in standard conditions before being plated for the assays. Each compound was tested over 72 hours in technical duplicates on a twelve-point concentration curve prepared by three-fold dilution from 6.7 μM to 0.11 nM. At least three independent experiments were carried out for IC50 determination. Artemisinin and chloroquine were used as controls. IC50 values were obtained using normalized fluorescence intensity from SYBR green I and analyzed via non-linear variable slope four-parameter regression curve-fitting model in Prism 6 (GraphPad Software Inc).

Structure (SMILES): CCCCCC(=O)N[C@@H](C(=O)N[C@@H](CCCC)C(=O)N[C@@H](CC(C)C)C(=O)[C@@]1(C)CO1)C(C)C [Analog 18, (S)-2-((R)-2-hexanamido-3-methylbutanamido)-N—((S)-4-methyl-1-((R)-2-methyloxiran-2-yl)-1-oxopentan-2-yl)hexanamide]
- IC50 [1]: 130 nM
- decrease in β5 activity ([2]; 450 nM compound, proteasome not named): 45%
- potency towards Pf20S compared with c20S ([2]; β5 activity, 50 nM compound): more potent towards Pf20S than c20S
- IC50 (P. falciparum Dd2): 3.27 ± 0.232 nM
